# Literature values as cited in article PMC2930141 (Biochimica et biophysica acta, 2010).
# How the values were obtained:
# [1] = aqueous
# [2] = biological target: human carbonic anhydrase I (hCA I) (Homo sapiens, UniProt P00915)
# [3] = tested on: hCA I; conditions: bound to hCA I
# [4] = tested on: hCA II
# Chain of human carbonic anhydrase I (hCA I) (P00915 whole entry): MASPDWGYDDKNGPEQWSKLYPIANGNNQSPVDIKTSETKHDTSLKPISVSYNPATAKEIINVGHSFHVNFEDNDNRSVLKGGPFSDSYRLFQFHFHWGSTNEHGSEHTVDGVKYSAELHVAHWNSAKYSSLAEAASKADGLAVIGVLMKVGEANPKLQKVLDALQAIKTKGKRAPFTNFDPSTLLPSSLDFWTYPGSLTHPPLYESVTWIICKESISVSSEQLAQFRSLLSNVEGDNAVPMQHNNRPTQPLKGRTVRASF
pKa of sulfonamide group [1],emission maximum of the enzyme-bound fluorophore [2] [nm],pKa from pH dependent binding affinity [3],pKa from pH dependent binding affinity [4],SMILES
9.79,–,–,–,NS(=O)(=O)c1ccccc1 [benzenesulfonamide]
–,458,6.3,6.4,"CN(C)c1cccc2c(S(N)(=O)=O)cccc12 [dansylamide, 5-dimethylamino-1-naphthalene sulfonamide]"
